Assay: Solubilization in anhydrous polar solvents
Format: physicochemical
Details: 25° C.
Description: It was unexpectedly discovered that both hydroxy acids and urea can be fully solubilized in anhydrous solvent at concentrations suitable for use as a chemical peel. Illustratively, for a peeling activity in the provided compositions and systems the hydroxy acid and urea must be present at a concentration of 8-10% or greater, with much greater efficacy at 10% or greater. It was discovered that anhydrous polar solvents can fully solubilize (i.e. no observable haze at 25° C.) both hydroxy acids and urea up to concentrations of 25%, thereby allowing significant efficacy when applied to the skin. The use of anhydrous glycerin (as one example) alone or optionally with or substituted by other anhydrous polar solvents (e.g. anhydrous polar solvents such as propylene glycol, butylene glycol, dimethylisosorbide, etc.) allows for the elimination of water and the prevention of the “burn” experienced in prior systems.

NC(N)=O [urea]
concentration fully solubilized (no observable haze): ≤ 25%

From patent publication US10092491B2, “Skin renewal enhancer” (priority 2015, dated 2018)
